Measurements as given in the kinase profiling compilation of Christmann-Franck et al. (2016).

Key:
Assay in all cases: KINOMEscan competition binding
Details in all cases: compound 1.0 µM
ABL2 (human) = ABL2 (human) (UniProt P42684)
ACVR2B (human) = ACVR2B (human) (UniProt Q13705)
AURKA (human) = AURKA (human) (UniProt O14965)
CAMKK2 (human) = CAMKK2 (human) (UniProt Q96RR4)
CDK9 (human) = CDK9 (human) (UniProt P50750)
CDKL5 (human) = CDKL5 (human) (UniProt O76039)
CIT (human) = CIT (human) (UniProt O14578)
CLK2 (human) = CLK2 (human) (UniProt P49760)
CSNK1G1 (human) = CSNK1G1 (human) (UniProt Q9HCP0)
CaMK1 (human) = CaMK1 (human) (UniProt Q14012)
[1] = test system: EGFR (human), P00533 [747-751 del / S ins]
[2] = test system: EGFR (human), P00533 [A750P; 747-749 del]
EPHA3 (human) = EPHA3 (human) (UniProt P29320)
[3] = test system: FLT3 (human), P36888 [K663Q]
MAP2K4 (human) = MAP2K4 (human) (UniProt P45985)
MAP3K11 (human) = MAP3K11 (human) (UniProt Q16584)
Sequence of MAP3K11 (human) (Q16584 whole entry, looked up): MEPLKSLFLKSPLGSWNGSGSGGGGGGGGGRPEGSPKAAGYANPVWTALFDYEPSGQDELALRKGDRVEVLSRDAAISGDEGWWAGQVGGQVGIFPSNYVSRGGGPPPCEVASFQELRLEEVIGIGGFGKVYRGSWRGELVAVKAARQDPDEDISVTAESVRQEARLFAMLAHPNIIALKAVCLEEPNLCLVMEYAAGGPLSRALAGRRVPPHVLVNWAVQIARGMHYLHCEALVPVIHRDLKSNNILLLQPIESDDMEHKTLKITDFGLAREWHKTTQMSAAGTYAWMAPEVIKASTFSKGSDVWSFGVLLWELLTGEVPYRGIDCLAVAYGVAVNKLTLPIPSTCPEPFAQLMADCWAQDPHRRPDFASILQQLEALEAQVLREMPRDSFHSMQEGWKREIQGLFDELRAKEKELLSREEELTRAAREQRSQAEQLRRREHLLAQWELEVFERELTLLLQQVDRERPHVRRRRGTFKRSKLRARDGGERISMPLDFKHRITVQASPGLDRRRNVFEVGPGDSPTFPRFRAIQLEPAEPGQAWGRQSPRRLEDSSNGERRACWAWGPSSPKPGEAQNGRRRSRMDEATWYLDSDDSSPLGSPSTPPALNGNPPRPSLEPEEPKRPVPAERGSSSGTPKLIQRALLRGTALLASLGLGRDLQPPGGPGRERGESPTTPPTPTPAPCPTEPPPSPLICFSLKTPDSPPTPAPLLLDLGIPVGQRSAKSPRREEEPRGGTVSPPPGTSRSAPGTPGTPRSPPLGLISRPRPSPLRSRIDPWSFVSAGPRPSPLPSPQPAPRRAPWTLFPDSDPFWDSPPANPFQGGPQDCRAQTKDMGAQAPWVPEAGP

MAP3K2 (human) = MAP3K2 (human) (UniProt Q9Y2U5)
MAP4K3 (human) = MAP4K3 (human) (UniProt Q8IVH8)
MINK1 (human) = MINK1 (human) (UniProt Q8N4C8)
MST1R (human) = MST1R (human) (UniProt Q04912)
MYLK (human) = MYLK (human) (UniProt Q15746)
NEK5 (human) = NEK5 (human) (UniProt Q6P3R8)
Sequence of NEK5 (human) (Q6P3R8 whole entry, looked up): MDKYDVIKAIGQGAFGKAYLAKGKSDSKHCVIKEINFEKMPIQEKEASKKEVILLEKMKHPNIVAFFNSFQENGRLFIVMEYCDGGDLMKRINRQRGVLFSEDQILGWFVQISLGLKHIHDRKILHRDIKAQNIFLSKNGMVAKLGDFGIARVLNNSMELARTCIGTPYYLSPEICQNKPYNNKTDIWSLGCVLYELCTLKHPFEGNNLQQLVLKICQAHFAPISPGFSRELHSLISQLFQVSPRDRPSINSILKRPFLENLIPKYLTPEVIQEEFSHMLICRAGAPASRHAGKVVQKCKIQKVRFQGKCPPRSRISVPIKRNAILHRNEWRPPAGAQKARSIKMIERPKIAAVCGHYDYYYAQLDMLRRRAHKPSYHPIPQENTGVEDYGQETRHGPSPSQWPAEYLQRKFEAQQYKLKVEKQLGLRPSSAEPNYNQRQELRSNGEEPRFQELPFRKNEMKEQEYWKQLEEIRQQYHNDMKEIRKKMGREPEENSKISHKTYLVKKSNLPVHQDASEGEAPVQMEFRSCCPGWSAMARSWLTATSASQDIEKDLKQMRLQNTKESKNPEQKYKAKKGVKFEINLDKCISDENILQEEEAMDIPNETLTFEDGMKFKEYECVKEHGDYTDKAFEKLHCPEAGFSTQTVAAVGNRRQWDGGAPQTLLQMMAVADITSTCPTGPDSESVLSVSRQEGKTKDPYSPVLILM

NEK7 (human) = NEK7 (human) (UniProt Q8TDX7)
NLK (human) = NLK (human) (UniProt Q9UBE8)
Sequence of NLK (human) (Q9UBE8 whole entry, looked up): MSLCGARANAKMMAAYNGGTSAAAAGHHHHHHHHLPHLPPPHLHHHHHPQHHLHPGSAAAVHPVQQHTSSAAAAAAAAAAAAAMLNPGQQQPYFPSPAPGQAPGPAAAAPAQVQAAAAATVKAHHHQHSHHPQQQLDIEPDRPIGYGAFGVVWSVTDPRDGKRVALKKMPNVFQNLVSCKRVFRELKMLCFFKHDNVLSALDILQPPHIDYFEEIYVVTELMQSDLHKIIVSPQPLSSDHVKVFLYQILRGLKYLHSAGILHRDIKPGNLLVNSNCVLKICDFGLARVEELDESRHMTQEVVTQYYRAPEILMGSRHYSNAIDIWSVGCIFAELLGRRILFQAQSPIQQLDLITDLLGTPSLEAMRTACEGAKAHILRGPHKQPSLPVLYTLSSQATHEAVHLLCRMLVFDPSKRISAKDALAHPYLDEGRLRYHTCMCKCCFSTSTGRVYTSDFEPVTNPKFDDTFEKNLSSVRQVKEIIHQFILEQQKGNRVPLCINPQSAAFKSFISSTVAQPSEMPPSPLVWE

PAK1 (human) = PAK1 (human) (UniProt Q13153)
PAK4 (human) = PAK4 (human) (UniProt O96013)
PDPK1 (human) = PDPK1 (human) (UniProt O15530)
PLK2 (human) = PLK2 (human) (UniProt Q9NYY3)
PRKCH (human) = PRKCH (human) (UniProt P24723)
Sequence of PRKCH (human) (P24723 whole entry, looked up): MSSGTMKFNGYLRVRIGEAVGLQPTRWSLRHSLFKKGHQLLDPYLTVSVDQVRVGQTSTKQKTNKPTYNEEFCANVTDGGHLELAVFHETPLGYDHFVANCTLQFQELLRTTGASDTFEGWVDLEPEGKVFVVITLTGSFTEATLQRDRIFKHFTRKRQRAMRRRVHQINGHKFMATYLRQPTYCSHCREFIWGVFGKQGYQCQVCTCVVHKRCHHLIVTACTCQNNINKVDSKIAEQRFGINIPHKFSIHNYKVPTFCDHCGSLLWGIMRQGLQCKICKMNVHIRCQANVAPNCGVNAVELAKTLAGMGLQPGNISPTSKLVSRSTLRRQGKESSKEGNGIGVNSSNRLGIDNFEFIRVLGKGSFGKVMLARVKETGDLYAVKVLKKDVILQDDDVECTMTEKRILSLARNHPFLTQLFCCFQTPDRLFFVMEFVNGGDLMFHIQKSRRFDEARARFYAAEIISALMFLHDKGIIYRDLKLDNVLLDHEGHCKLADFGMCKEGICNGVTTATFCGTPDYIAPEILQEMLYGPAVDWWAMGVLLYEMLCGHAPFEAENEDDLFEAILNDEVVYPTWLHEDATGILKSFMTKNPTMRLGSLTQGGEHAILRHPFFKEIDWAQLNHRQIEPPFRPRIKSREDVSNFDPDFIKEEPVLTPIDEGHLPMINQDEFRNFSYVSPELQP

PRKD2 (human) = PRKD2 (human) (UniProt Q9BZL6)
PTK6 (human) = PTK6 (human) (UniProt Q13882)
Sequence of PTK6 (human) (Q13882 whole entry, looked up): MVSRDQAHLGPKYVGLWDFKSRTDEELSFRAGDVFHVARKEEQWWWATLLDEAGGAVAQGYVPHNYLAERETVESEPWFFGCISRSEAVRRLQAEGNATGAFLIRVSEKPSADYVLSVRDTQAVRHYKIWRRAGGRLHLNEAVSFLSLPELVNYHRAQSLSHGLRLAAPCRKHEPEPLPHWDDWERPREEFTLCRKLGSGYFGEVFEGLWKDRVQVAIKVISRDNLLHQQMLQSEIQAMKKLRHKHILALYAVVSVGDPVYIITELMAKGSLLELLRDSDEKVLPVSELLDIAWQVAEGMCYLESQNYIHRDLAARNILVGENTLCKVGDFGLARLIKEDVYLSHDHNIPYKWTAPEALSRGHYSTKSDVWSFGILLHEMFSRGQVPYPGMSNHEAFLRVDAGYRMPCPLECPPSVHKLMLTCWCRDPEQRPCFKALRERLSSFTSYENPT

RAF1 (human) = RAF1 (human) (UniProt P04049)
ROS1 (human) = ROS1 (human) (UniProt P08922)
SGK110 (human) = SGK110 (human) (UniProt P0C264)
SIK1 (human) = SIK1 (human) (UniProt P57059)
Sequence of SIK1 (human) (P57059 whole entry, looked up): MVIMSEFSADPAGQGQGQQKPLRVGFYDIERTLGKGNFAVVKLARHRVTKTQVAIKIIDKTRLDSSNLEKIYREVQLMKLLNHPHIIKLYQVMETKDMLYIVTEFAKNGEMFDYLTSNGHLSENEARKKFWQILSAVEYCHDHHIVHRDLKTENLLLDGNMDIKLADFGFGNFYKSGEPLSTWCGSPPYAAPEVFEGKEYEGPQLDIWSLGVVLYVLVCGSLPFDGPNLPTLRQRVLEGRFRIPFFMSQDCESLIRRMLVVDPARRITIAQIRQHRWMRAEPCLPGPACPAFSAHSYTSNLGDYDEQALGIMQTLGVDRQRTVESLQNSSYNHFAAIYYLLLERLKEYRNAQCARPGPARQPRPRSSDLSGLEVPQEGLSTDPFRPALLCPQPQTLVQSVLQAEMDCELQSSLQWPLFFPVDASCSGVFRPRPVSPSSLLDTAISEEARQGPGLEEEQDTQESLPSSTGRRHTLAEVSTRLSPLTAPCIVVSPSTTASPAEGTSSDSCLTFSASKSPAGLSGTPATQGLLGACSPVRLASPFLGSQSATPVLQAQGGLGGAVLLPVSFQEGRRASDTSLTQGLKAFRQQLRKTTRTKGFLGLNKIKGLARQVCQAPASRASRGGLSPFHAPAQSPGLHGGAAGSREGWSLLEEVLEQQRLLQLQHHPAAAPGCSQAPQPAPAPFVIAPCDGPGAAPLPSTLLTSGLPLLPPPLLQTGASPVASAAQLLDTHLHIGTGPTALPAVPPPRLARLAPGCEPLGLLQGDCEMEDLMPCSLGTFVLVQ

SRPK3 (human) = SRPK3 (human) (UniProt Q9UPE1)
STK11 (human) = STK11 (human) (UniProt Q15831)
STK38L (human) = STK38L (human) (UniProt Q9Y2H1)
Sequence of STK38L (human) (Q9Y2H1 whole entry, looked up): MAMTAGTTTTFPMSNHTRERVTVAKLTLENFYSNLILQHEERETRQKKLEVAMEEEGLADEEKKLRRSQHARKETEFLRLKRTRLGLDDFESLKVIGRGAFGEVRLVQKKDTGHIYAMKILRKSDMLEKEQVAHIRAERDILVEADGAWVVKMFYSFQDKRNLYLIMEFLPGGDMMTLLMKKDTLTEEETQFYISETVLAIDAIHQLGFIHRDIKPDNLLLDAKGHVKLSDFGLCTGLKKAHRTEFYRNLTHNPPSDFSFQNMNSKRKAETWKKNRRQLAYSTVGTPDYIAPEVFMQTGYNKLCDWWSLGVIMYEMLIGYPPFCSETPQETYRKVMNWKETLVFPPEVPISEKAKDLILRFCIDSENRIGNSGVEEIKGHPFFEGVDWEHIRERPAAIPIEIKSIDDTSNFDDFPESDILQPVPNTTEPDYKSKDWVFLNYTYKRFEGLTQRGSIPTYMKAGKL

TTK (human) = TTK (human) (UniProt P33981)
TXK (human) = TXK (human) (UniProt P42681)

Sequence of CAMKK2 (human) (Q96RR4 whole entry, looked up): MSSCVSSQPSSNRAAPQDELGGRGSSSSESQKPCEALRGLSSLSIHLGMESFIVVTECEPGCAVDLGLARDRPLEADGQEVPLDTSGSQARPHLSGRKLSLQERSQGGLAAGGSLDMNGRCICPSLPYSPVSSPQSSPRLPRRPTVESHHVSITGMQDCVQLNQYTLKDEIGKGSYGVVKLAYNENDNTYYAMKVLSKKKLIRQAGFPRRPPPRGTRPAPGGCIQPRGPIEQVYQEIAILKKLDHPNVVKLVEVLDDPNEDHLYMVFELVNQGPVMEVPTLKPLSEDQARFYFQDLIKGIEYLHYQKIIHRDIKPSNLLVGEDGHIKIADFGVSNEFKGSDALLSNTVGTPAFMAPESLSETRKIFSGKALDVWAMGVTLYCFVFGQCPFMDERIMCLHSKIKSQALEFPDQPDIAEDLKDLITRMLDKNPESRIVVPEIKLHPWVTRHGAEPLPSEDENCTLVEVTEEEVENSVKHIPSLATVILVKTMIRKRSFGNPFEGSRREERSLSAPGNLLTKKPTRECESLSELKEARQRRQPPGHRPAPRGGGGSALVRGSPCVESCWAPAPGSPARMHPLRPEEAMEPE

- inhibition of binding (ABL2 (human)): 0%
- inhibition of binding (ACVR2B (human)): 0%
- inhibition of binding (AURKA (human)): 0%
- inhibition of binding (CAMKK2 (human)): 0%
- inhibition of binding (CDK9 (human)): 12%
- inhibition of binding (CDKL5 (human)): 50%
- inhibition of binding (CIT (human)): 0%
- inhibition of binding (CLK2 (human)): 0%
- inhibition of binding (CSNK1G1 (human)): 25%
- inhibition of binding (CaMK1 (human)): 4%
- inhibition of binding [1]: 4%
- inhibition of binding [2]: 0%
- inhibition of binding (EPHA3 (human)): 0%
- inhibition of binding [3]: 0%
- inhibition of binding (MAP2K4 (human)): 15%
- inhibition of binding (MAP3K11 (human)): 0%
- inhibition of binding (MAP3K2 (human)): 0%
- inhibition of binding (MAP4K3 (human)): 0%
- inhibition of binding (MINK1 (human)): 0%
- inhibition of binding (MST1R (human)): 0%
- inhibition of binding (MYLK (human)): 12%
- inhibition of binding (NEK5 (human)): 0%
- inhibition of binding (NEK7 (human)): 0%
- inhibition of binding (NLK (human)): 0%
- inhibition of binding (PAK1 (human)): 4%
- inhibition of binding (PAK4 (human)): 13%
- inhibition of binding (PDPK1 (human)): 0%
- inhibition of binding (PLK2 (human)): 0%
- inhibition of binding (PRKCH (human)): 0%
- inhibition of binding (PRKD2 (human)): 38%
- inhibition of binding (PTK6 (human)): 0%
- inhibition of binding (RAF1 (human)): 7%
- inhibition of binding (ROS1 (human)): 0%
- inhibition of binding (SGK110 (human)): 3%
- inhibition of binding (SIK1 (human)): 0%
- inhibition of binding (SRPK3 (human)): 0%
- inhibition of binding (STK11 (human)): 0%
- inhibition of binding (STK38L (human)): 3%
- inhibition of binding (TTK (human)): 7%
- inhibition of binding (TXK (human)): 0%
Structure (SMILES): Nc1cc(C(F)(F)F)c(-c2cc(N3CCOCC3)nc(N3CCOCC3)n2)cn1
